Data as given in patent US20230159467A1, “NOVEL COMPOUNDS USEFUL IN THE TREATMENT AND/OR PREVENTION OF A DISEASE, DISORDER OR CONDITION ASSOCIATED WITH ANGIOTENSIN II” (Vicore Pharma AB, priority 2020, published 2023).
In brackets after ≈: the same amount, converted by molar mass.

Assays:
human AT2R = molecular target: T1, human AT2R (Homo sapiens, UniProt P50052); assay type: binding; settings: HEK-293 cell membranes
T1 construct: host or cells: HEK-293
T1 sequence (P50052 1-363): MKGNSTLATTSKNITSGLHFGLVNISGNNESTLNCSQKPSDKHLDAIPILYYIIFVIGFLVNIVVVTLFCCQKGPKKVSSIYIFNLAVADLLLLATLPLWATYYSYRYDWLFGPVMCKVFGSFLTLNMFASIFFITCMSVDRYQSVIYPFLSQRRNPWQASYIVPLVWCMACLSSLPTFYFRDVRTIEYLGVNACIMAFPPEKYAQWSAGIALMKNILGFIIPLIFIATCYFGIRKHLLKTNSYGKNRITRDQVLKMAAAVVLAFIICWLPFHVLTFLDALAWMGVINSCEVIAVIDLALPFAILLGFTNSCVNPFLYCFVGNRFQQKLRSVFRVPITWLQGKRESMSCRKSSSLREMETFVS

[1] = Kinetic solubility in PBS pH 7.4; assay type: physicochemical; settings: Dulbecco's PBS buffer, aqueous buffer, kinetic from dmso stock; PBS pH 7.4, 24 h room temperature, 2% DMSO
Description: Kinetic solubility. Dulbecco's PBS buffer was used (NaCl 137 mM, KCl 2.7 mM, Na2HPO4 8.1 mM, KH2PO4 1.5 mM with pH 7.4). The test compound is prepared at 200 μM in the PBS buffer from a 10 mM DMSO stock solution. The final DMSO concentration is 2%. The buffer samples were mixed thoroughly followed by incubation at room temperature for 24 h. At the end of the incubation, the buffer samples were centrifuged and supernatants were then injected for the HPLC analysis. A calibration standard of the test compound was prepared at 200 μM in methanol/water (3/2, v/v) from a 10 mM DMSO stock solution on the day of HPLC analysis. The analysis was conducted by HPLC-UV/VIS with photodiode array detection, with monitoring at 205, 230, 260, and 300 nm wavelengths. The HPLC system consisted of a C18 column using a gradient of A and B (A=12 mM ammonium formate, 6 mM formic acid in water, pH 4.0, B=6 mM ammonium formate, 3 mM formic acid acetonitrile/water (9/1, v/v)). Reference compounds used were metoprolol, rifampicin, ketoconazole, phenytoin, haloperidol, simvastatin, diethylstilbestrol, and tamoxifen, ranking from fully soluble (200 μM) to poorly soluble (<1μM). […] The range of the assay was approximately 0.5 μM to 200 μM. The chromatographic purity (%) was determined as the peak area of the principal peak relative to the total integrated peak areas in the HPLC chromatogram of the calibration standard.

CYP2D6 = CYP2D6 (Homo sapiens, UniProt P10635); assay: CYP450 inhibition assay, pooled human liver microsomes, dextromethorphan substrate; settings: for inhibition at 10 min, 10 µM: both, human, pooled human liver microsomes, pH 7.4, probe dextromethorphan; for CYP 450 Inhibition CYP2D6: at 10 μM
Chain of CYP2D6 (P10635 whole entry): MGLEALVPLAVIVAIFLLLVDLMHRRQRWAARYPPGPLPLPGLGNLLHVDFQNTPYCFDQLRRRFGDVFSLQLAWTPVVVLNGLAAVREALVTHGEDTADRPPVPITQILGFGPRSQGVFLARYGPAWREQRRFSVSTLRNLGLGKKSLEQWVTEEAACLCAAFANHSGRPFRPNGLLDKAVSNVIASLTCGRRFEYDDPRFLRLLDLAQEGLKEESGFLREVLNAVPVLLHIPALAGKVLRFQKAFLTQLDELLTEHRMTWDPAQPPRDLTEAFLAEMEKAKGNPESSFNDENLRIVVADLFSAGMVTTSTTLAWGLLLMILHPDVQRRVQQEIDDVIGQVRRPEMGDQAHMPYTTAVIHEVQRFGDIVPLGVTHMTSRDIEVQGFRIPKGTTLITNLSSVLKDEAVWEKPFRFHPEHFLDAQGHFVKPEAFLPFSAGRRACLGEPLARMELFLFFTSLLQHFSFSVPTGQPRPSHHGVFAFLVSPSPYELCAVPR

CYP2C19 = CYP2C19 (Homo sapiens, UniProt P33261); assay: CYP450 inhibition assay, pooled human liver microsomes, omeprazole substrate; settings: for inhibition at 10 min, 10 µM: both, human, pooled human liver microsomes, pH 7.4, probe omeprazole; for CYP 450 Inhibition CYP2C19: at 10 μM
Chain of CYP2C19 (P33261 whole entry): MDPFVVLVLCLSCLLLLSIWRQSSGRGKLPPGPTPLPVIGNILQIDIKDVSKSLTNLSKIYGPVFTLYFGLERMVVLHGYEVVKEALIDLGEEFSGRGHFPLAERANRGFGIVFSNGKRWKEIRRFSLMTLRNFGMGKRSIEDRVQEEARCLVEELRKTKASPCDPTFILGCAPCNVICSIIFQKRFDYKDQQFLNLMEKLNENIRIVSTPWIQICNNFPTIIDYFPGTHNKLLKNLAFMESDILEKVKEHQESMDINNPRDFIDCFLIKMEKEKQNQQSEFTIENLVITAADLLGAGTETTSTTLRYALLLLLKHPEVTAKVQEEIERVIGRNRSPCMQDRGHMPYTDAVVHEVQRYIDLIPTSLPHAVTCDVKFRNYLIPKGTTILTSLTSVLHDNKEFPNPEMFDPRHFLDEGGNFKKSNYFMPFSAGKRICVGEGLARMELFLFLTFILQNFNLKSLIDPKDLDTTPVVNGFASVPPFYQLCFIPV

[2] = Stability in human liver microsomes; assay type: in vitro ADME; settings: half-life
Outline: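 Pooled liver microsomes (human mixed gender; male Sprague-Dawley rat; male CD-1 mouse) at final 0.1 mg/mL protein, compound 0.1 μM, 100 mM potassium phosphate pH 7.4, NADPH-initiated, sampled 0–60 min. Parent remaining by HPLC-MS/MS vs time zero; half-life from log-linear slope assuming first-order kinetics, plus Clint.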

human AT1R = molecular target: T2, human AT1R (Homo sapiens, UniProt P30556); assay type: binding; settings: HEK-293 cell membranes
T2 construct: host or cells: HEK-293
T2 sequence (P30556 1-359): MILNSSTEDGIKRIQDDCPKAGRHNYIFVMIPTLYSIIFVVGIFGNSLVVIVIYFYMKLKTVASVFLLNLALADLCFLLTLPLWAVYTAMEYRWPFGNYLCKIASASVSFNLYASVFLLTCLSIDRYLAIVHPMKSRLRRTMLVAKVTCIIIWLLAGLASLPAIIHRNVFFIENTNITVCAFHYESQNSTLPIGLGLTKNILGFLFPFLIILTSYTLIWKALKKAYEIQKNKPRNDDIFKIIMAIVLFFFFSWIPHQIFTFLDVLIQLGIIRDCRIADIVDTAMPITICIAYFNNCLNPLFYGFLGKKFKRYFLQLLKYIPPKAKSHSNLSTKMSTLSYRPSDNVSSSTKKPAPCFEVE

CYP2C9 = CYP2C9 (Homo sapiens, UniProt P11712); assay: CYP450 inhibition assay, pooled human liver microsomes, diclofenac substrate; settings: for inhibition at 10 min, 10 µM: both, human, pooled human liver microsomes, pH 7.4, probe diclofenac; for CYP 450 Inhibition CYP2C9: at 10 μM
Chain of CYP2C9 (P11712 whole entry): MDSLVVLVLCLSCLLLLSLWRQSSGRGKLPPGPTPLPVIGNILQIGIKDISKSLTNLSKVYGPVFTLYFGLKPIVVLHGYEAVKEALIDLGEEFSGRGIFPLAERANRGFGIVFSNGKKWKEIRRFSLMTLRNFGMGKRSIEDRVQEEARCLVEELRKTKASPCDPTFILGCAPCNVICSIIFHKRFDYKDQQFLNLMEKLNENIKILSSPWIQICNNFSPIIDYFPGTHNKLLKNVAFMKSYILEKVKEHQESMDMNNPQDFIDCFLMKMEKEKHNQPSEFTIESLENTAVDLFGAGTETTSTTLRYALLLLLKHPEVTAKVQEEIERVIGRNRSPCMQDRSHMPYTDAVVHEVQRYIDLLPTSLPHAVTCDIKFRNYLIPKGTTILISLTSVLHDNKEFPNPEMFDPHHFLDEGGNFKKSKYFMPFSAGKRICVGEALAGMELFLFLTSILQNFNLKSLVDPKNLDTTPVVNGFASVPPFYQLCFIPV

CYP2C8 = molecular target: T3, CYP2C8 (Homo sapiens, UniProt P10632); assay: CYP450 inhibition assay, pooled human liver microsomes, amodiaquine substrate; settings: for inhibition at 10 min, 10 µM: both, human, pooled human liver microsomes, pH 7.4, probe amodiaquine; for CYP 450 Inhibition CYP2C8: at 10 μM
T3 sequence (P10632 1-490): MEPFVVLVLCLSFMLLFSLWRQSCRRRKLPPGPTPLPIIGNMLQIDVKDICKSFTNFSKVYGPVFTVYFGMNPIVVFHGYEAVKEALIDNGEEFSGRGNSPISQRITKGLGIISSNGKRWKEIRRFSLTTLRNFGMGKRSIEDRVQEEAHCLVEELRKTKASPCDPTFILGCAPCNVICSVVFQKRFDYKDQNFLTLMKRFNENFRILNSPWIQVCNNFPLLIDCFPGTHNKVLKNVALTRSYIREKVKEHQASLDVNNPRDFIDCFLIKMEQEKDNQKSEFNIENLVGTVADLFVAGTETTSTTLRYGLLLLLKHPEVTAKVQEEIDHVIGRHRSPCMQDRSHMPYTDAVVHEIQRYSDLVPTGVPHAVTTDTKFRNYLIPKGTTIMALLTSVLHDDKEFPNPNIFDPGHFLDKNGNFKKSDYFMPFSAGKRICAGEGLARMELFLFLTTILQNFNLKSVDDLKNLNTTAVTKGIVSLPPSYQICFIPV

Ki (human AT2R) [µM]	solubility kinetic at 24 h [1] [µM]	inhibition at 10 min, 10 µM (CYP2D6) [%]	inhibition at 10 min, 10 µM (CYP2C19) [%]	Stability in liver microsomes HLM [2] [min]	Ki (human AT1R) [µM]	inhibition at 10 min, 10 µM (CYP2C9) [%]	inhibition at 10 min, 10 µM (CYP2C8) [%]	CYP 450 Inhibition CYP2D6 (CYP2D6) [%]	CYP 450 Inhibition CYP2C19 (CYP2C19) [%]	CYP 450 Inhibition CYP2C9 (CYP2C9) [%]	CYP 450 Inhibition CYP2C8 (CYP2C8) [%]	SMILES
0.029	195 (≈ 95.7 µg/mL)			>60	~1			12	38	23	26	COC(=O)NS(=O)(=O)c1sc(CC(C)C)nc1-c1ccc(Cn2ccnc2C(C)(C)C)cc1 [Example 3, Methyl ((4-(4-((2-(tert-butyl)-1H-imidazol-1-yl)methyl)phenyl)-2-isobutylthiazol-5-yl)sulfonyl) carbamate]
0.018	180 (≈ 95.9 µg/mL)			45	~1			12	66	68	70	CCCCOC(=O)NS(=O)(=O)c1sc(CC(C)C)nc1-c1ccc(Cn2ccnc2C(C)(C)C)cc1 [Example 4, Butyl ((4-(4-((2-(tert-butyl)-1H-imidazol-1-yl)methyl)phenyl)-2-isobutylthiazol-5-yl)sulfonyl) carbamate]

The remaining lines, values behind:

SMILES	Ki (human AT2R) [µM]	solubility kinetic at 24 h [1] [µM]	inhibition at 10 min, 10 µM (CYP2D6) [%]	inhibition at 10 min, 10 µM (CYP2C19) [%]	Stability in liver microsomes HLM [2] [min]	Ki (human AT1R) [µM]	inhibition at 10 min, 10 µM (CYP2C9) [%]	inhibition at 10 min, 10 µM (CYP2C8) [%]	CYP 450 Inhibition CYP2D6 (CYP2D6) [%]	CYP 450 Inhibition CYP2C19 (CYP2C19) [%]	CYP 450 Inhibition CYP2C9 (CYP2C9) [%]	CYP 450 Inhibition CYP2C8 (CYP2C8) [%]
CCCCOC(=O)[N-]S(=O)(=O)c1sc(CC(C)C)cc1-c1ccc(Cn2ccnc2C(C)(C)C)cc1.[K+] [Example 11B, Potassium (butoxycarbonyl)((3-(4-((2-(tert-butyl)-1H-imidazol-1-yl)methyl)phenyl)-5-isobutylthiophen-2-yl)sulfonyl)amide]	0.0066	> 200	14	66	11	~1	88	81				
COC(=O)[N-]S(=O)(=O)c1ccc(CC(C)C)cc1-c1ccc(Cn2ccnc2C(C)(C)O)cc1.[K+] [Example 8B, Potassium ((4′-((2-(2-hydroxypropan-2-yl)-1H-imidazol-1-yl)methyl)-5-isobutyl-[1,1′-biphenyl]-2-yl)sulfonyl)(methoxycarbonyl)amide]	0.0032	> 200	2.5	45	>60	~1	92	64				
COC(=O)NS(=O)(=O)c1ccc(CC(C)C)cc1-c1ccc(Cn2ccnc2C(C)(C)C)cc1 [Example 1A, Methyl ((4′-((2-(tert-butyl)-1H-imidazol-1-yl)methyl)-5-isobutyl-[1,1′-biphenyl]-2-yl)sulfonyl)carbamate]	0.0011	140 (≈ 67.7 µg/mL)	9	38	>60	~1	37	67				
